Results reported in US11980633B2, “Method for treating cancer using a combination of DNA-damaging agents and DNA-PK inhibitors” (Vertex Pharmaceuticals Incorporated, priority 2016, dated 2024).

Assays:
OVCAR-3 Xenograft Tumors = test: OVCAR-3 cell line xenograft: DOXIL given 16 hr prior to Compound B-2 CoX (PO); tumor growth; assay type: in vivo, nu/nu nude mice; conditions: 100 mg/kg Compound B-2 CoX qd×2 alone
Source text: (§1) Statistical significance was defined as P<0.05.

HCT 116 Xenograft Tumors = test: HCT 116 cell line xenograft: DOXIL given 16 hr prior to Compound B-2 CoX (PO), 2 weekly cycles; tumor growth (studies of Tables 4-9); assay type: in vivo, nu/nu nude mice; conditions: Table 5 study; 100 mg/kg Compound B-2 CoX qd×4 alone
Experimental: as §1
Effect of Compound B-2 CoX Schedule in Combination with DOXIL® in HCT 116 Xenograft Tumors: The HCT 116 xenograft tumor model was selected for further examination of the effect of schedule and dose of Compound B-2 CoX in combination with DOXIL®. In this study, the effect of dosing Compound B-2 CoX qd for 2, 3, and 4 days following DOXIL® was examined.
Dose Response of DOXIL® alone and Dose Response of Compound B-2 CoX in Combination with 6 mg/kg DOXIL® in HCT 116 Xenograft Tumors: Additional investigations were conducted to determine the dose response of DOXIL® alone (1.5-6 mg/kg) in the HCT 116 xenograft tumor model. Further, a dose response of Compound B-2 CoX (25-100 mg/kg) in combination with 6 mg/kg DOXIL® was also assessed. Lastly, the efficacy of 1.5 mg/kg DOXIL® in combination with 200 mg/kg Compound B-2 CoX was also examined.
Result of reexamination of Compound B-2 CoX Dose and Schedule in Combination with DOXIL® in an HCT 116 Xenograft Mouse Model.
Examination of the Effect of Compound B-2 CoX Dose in Combination with 3 mg/kg DOXIL® in an HCT 116 Xenograft Tumor Model: A 3 mg/kg DOXIL® dose was examined in combination with a range of doses of Compound B-2 CoX (50-200 mg/kg) to identify the response of HCT 116 xenograft tumors to these combinations. […]

[1] = tested on: pKAP1 and pH2AX levels in MDA-MB-436 and MDA-MB-468 breast cancer cells; test: pKAP1 and pH2AX immunoblot, Compound B-2 and doxorubicin in MDA-MB-436 and MDA-MB-468 cells; assay type: cell-based, human; conditions: 500 nM doxorubicin alone; at 4 h, remained elevated to 8 h
Experimental: (§2) Materials and Methods. The human cancer cell lines A549 (CCL-185), DU4475 (HTB-123), MDA-MB-436 (HTB-130), and MDA-MB-468 (HTB-132) were obtained from American Type Culture Collection (ATCC; Manassas, VA). A 10 mM stock solution of Compound B-1 or Compound B-2 was prepared in DMSO and stored at −20° C. Etoposide and doxorubicin were purchased from Sigma-Aldrich (St. Louis, MO).
(§3) The A549 human lung cancer cell line was purchased from ATCC and was cultured in DMEM supplemented with 10% fetal bovine serum, 1× non-essential amino acids and 1× Penicillin/Streptomycin (complete medium). Cells were maintained at a subconfluent state by passaging every 2-3 days. Human breast cancer cells lines DU4475, MDA-MB-436, and MDA-MB-468 were purchased from ATCC and cultured in DMEM supplemented with 10% fetal bovine serum, 1× Glutamax and Penicillin/Streptomycin. Cells were maintained at a subconfluent state by passaging every 2-3 days.
(§4) Compound B-1 and Compound B-2 used in these experiments were not prepared as a co-crystals.
(§5) Breast cancer cell lines grown in 24-well (Costar, catalog #3526) or 6-well (Costar, catalog #3516) tissue culture plates to 70-80% confluence were pre-incubated with 1 μM Compound B-2 or DMSO for 15 min. Doxorubicin was added to a final concentration of either 100 nM or 500 nM from a 1000× stock prepared in DMSO. Cells were then incubated for the indicated amount of time and harvested for analysis.
Cell Lysis and Western Blot Analysis. […]
To determine that enhancement of DNA damage by concurrent treatment of cells with Compound B-2 and doxorubicin was not specific to DU4475 cells, two additional breast cancer cell lines, MDA-MB-436 and MDA-MB-468, were also pre-incubated with 1 μM Compound B-2 for 15 min, followed by addition of 500 nM doxorubicin. Cells were harvested at various time points following doxorubicin addition and analyzed for levels of pKAP1 and pH2AX by immunoblotting.

[2] = tested on: pKAP1 and pH2AX levels in DU4475 breast cancer cells; test: pKAP1 and pH2AX immunoblot, Compound B-2 and doxorubicin in DU4475 breast cancer cells; assay type: cell-based, human; conditions: doxorubicin alone, 100 nM or 500 nM; from 4-8 h, elevated up to 24 h at 500 nM only
Experimental: as §2, §3, §4, §5
Cell Lysis and Western Blot Analysis. Cells treated with Compound B-1 or Compound B-2 in combination with chemotherapeutic agents were washed once with ice-cold PBS and then dissolved in 150 μL/well 2×SDS-PAGE sample buffer, transferred to microfuge tubes, and heated in a 105° C. heat block for 5 min for immunoblotting. A 15-μL aliquot of each SDS-PAGE sample was loaded onto 12-lane 4 20% Tris-Glycine gels and the gels were run at 125v constant voltage until the dye front reached the bottom (approximately 2 h). Following electrophoresis, separated proteins in the gels were transferred to a nitrocellulose membrane. Transfer was carried out for 2 h at 1.5 A constant current in a cold room using a Hoefer transfer apparatus (Model TE42 or TE62, Hoefer Inc, Holliston, MA) according to manufacturer's instructions. Following transfer, nitrocellulose membranes were incubated with blocking buffer for 1 h at room temperature. The nitrocellulose membranes were cut and the bottom halves were incubated overnight with 2 primary antibodies, anti-pH2AX (1/1000) and anti-total H2AX (1/1000). After washing, the appropriate fluorescently labeled secondary antibodies were added to the membranes and then imaged with pH2AX on the 800 (green) channel and total H2AX on the 700 (red) channel. The top halves of the membranes were probed sequentially for pKAP1 (1/1000) on the 700 (red) channel and then probed for total KAP1 (1/1000) and GAPDH (1/2500) on the 800 (green) channel. Image acquisition was conducted using an Odyssey fluorescent imaging system (Li-Cor Biosciences; Lincoln, NE).
Compound B-2 and doxorubicin combination in breast cancer cell lines in culture. To examine the effect of DNA-PK inhibition on pKAP1 and pH2AX in vitro, DU4475 breast cancer cells were pre-incubated with 1 μM Compound B-2 for 15 min, followed by addition of 100 nM or 500 nM doxorubicin. Cells were harvested at various time points following doxorubicin addition and analyzed for levels of pKAP1 and pH2AX by immunoblotting.

## [2H]c1nc(C)nc([2H])c1-c1cc(NC[C@@H](C)c2cccc3c(C(=O)NC)ccnc23)ncn1 [Compound B-2 CoX]
OVCAR-3 Xenograft Tumors
  % T/C (Day 43): 83.2%
HCT 116 Xenograft Tumors
  % T/C (Day 19): 106%

## COc1cccc2c1C(=O)c1c(O)c3c(c(O)c1C2=O)C[C@@](O)(C(=O)CO)C[C@@H]3O[C@H]1C[C@H](N)[C@H](O)[C@H](C)O1 [Doxorubicin, reference compound]
[1]
  pKAP1 and pH2AX level: increased level
[2]
  pKAP1 and pH2AX level: increased level
